Test results published in US9856228B2, “Peptidyl nitril compounds as dipeptidyl peptidase I inhibitors” (Prozymex A/S, priority 2013, dated 2018).
“And” between values parts separate entries of the source, which are not always exact repeats. Equal entries are not always repeated.

Key:
CYP3A4 = target: T1, CYP3A4 (Homo sapiens, UniProt P08684); test: Test for inhibition of CYP3A4 in Human Liver Microsomes; format: in vitro ADME; details: pooled Human Liver Microsomes, 75 μM testosterone; read-out: CYP inhibition IC50 CYP3A4
T1 construct: incubated with pooled Human Liver Microsomes (0.25 mg protein/mL); from tissue; host or cells: pooled human liver microsomes
Method: (§1) The test for inhibition of CYP2C9, CYP2D6 and CYP3A4 enzymes was performed by Absorption System, Exton, Pa. 19341, USA according to the procedure described below.
(§2) The IC50 values of Example 1 of WO2012119941 (PZ1024) and the compound of the present invention (PZ1025) for CYP enzymes (CYP2C9, CYP2D6, and CYP3A4) in Human Liver Microsomes were measured. […] After a period of incubation, the samples were treated by the addition of protein precipitation solvent and centrifuged. CYP enzyme activities were measured by determining the formation of the CYP probe metabolites by LC-MS/MS, and the IC50 (the concentration of an inhibitor causing 50% inhibition) was estimated using GraphPad Prism® software by fitting the experimental data (percent of control activity remaining at each concentration of test compound) to a sigmoidal model and non-linear regression analysis.
(§3) The CYP enzyme activities in the Human Liver Microsomes were verified in parallel by determining the inhibition of positive inhibitors on the CYP enzyme activities (sulfaphenazole, quinidine and ketoconazole for CYP2C9, CYP2D6, and CYP3A4, respectively).

CYP2C9 = target: T2, CYP2C9 (Homo sapiens, UniProt P11712); test: Test for inhibition of CYP2C9 in Human Liver Microsomes; format: in vitro ADME; details: pooled Human Liver Microsomes, 6 μM diclofenac; read-out: CYP inhibition IC50 CYP2C9
T2 construct: incubated with pooled Human Liver Microsomes (0.25 mg protein/mL); from tissue; host or cells: pooled human liver microsomes
Method: as §1, §2, §3

[1] = test system: human lymphoblastoid TK6 cells; test: Test for cytotoxicity (relative cell proliferation, optical absorbance); format: cell-based; details: for highest concentration that does not cross the significance threshold: TK6 strains GenM-T01 and GenM-C01, 24 hour and 48 hour time points, threshold 80% relative cell density
Method: The test for cytotoxicity was performed by Cyprotex Discovery Ltd. 15 Beech lane, Macclesfield, Cheshire, SK10 2DR, UK.
Two strains of cultured human lymphoblastoid TK6 cells was used, GenM-T01 and GenM-C01. A dilution series of each test compound was generated in a 96-well, black microplate with an optically clear base. The plates was analysed at 24 hour and 48 hour time points using a microplate reader, that provides measurements of light absorbance for cells and solutions in the microplates wells.
Cytotoxicity was assessed using relative cell proliferation, quantified using optical absorbance. Cytotoxic compounds are those which reduce relative cell density below a significance threshold set at 80% compared to the vehicle-treated control, at one or more test concentrations.

CYP2D6 = target: T3, CYP2D6 (Homo sapiens, UniProt P10635); test: Test for inhibition of CYP2D6 in Human Liver Microsomes; format: in vitro ADME; details: pooled Human Liver Microsomes, 7 μM bufuralol; read-out: CYP inhibition IC50 CYP2D6
T3 construct: incubated with pooled Human Liver Microsomes (0.25 mg protein/mL); from tissue; host or cells: pooled human liver microsomes
Method: as §1, §2, §3

[2] = Test for metabolic stability, Mouse Liver Microsomes; format: in vitro ADME; details: for Metabolic stability mouse microsomes t½: mouse liver microsomes 1.0 mg/mL; for Metabolic stability mouse microsomes t½ / half-life at 5 μM: 5 μM test compound, NADPH; for half-life at 5 μM: mouse, liver microsomes, pH 7.4, mouse liver microsomes 1.0 mg/mL, read-out: Metabolic stability mouse microsomes t½
Method: (§4) The test for metabolic stability was performed by Absorption System, Exton, Pa. 19341, USA.
(§5) The test compound (DPPI inhibitor) was dissolved in 100% DMSO at a concentration of 10 mM. The reaction mixture, consisted of Mouse or Human Liver Microsomes (1.0 mg/mL), 1 mM NADPH, 100 nnM Potassium Phosphate, pH 7.4, 10 mM Magnesium Chloride and test compound at a concentration of 5 μM.
(§6) An aliquot of the reaction mixture (without cofactors) was incubated in a shaking water bath at 37° C. for 3 minutes. Another aliquot of the reaction mixture was prepared as the negative control. The test compound was added into both the reaction mixture and the negative control at a final concentration of 5 μM.
(§7) The reaction was initiated by the addition of NADPH to 1 mM (not into the negative controls) and then incubated in a shaking water bath at 37° C. Aliquots (100 μL) were withdrawn at 0, 10, 20, 30, and 60 minutes or at 0, 15, 30 and 60 minutes and combined with 900 μL of ice-cold 50/50 acetonitrile/dH2O to terminate the reaction. A control (testosterone) was run simultaneously with the test compound in a separate reaction. LC/MS/MS is used to determine the peak area response ratio (peak area corresponding to test compound or control divided by that of an analytical internal standard). The natural log of the percent remaining was plotted versus time. A linear fit was used to determine the rate constant. The fit was truncated if the percent remaining of test compound was less than 10%. The elimination half-lives associated with the disappearance of the test and control compounds were determined to compare their relative metabolic stability.

[3] = Test for metabolic stability, Human Liver Microsomes; format: in vitro ADME; details: for Metabolic stability human microsomes t½: human liver microsomes 1.0 mg/mL; for Metabolic stability human microsomes t½ / half-life at 5 μM: 5 μM test compound, NADPH; for half-life at 5 μM: human, liver microsomes, pH 7.4, human liver microsomes 1.0 mg/mL, read-out: Metabolic stability human microsomes t½
Method: as §4, §5, §6, §7

DPPI [4] = target: T4, DPPI (Homo sapiens, UniProt P53634); test: Human DPPI inhibition assay (Gly-Phe-paranitroanilide substrate); format: biochemical; design: purchased UNIZYME Laboratories A/S; details: Table 1 potency; assay not given
Method: Using this assay, the IC50 value of the compound of the invention may be determined using Gly-Phe-paranitroanilide as a DPPI specific substrate.
Assay buffer: 20 mM citric acid (2.1 g citric acid), 150 mM NaCl (4.4 g NaCl) and 2 mM EDTA (370 mg EDTA) was dissolved in 500 mL H2O, and pH was adjusted to 4.5 with HCl.
Substrate: Gly-Phe-paranitroanilide (Sigma Aldrich; Cat. No G0142) was used as the substrate for determination of IC50 values. Km was 2.2 mM. The substrate was solubilized in dinnethylformamid to give a 0.2-0.5 M stock solution, which was then further diluted with stirring in assay buffer to a final concentration of 1 mM.
DPPI: Human DPPI (obtained from UNIZYME Laboratories A/S, DK-2970 Høsholm, Denmark) was stored at −20° C. in a buffer containing 2.5 mM Na-phosphate, 150 mM NaCl, 2 mM cysteamine, 50% glycerol, pH 7.0 at a concentration of 1-2 mg/mL (5-10 μM). This stock solution was diluted 500-1000 times in assay buffer to a concentration of 10-20 nM.
Assay conditions: The assay was performed in 96-well plates. Diluted enzyme (25 μL) was added to the well, followed by 25 μL of test substance in varying concentrations, and the solution was mixed. […] The absorption was measured at 405 nm at 37° C. for every 90 seconds for 12 minutes or every 20 seconds for 4 minutes. […] IC50 was determined using a 4-parameter logistic equation in a non-linear curve fitting routine.

DPPI [5] = target: T4, DPPI; test: Cell based DPPI inhibition assay (neutrophil elastase activity in U937 cells); design: endogenous in cells; host or cells: U937 cells; details: 24 hours, elastase activity readout
Method: Using the cell based assay described below, the biological activity of the compounds of the invention or other DPPI inhibitors may be determined.
Neutrophil elastase enzymatic activities in U937 cells grown in the presence of DPPI inhibitors were measured by methods modified from Méthot N; Rubin J; Guay D; Beaulieu C; Ethier D; Reddy T J; Riendeau D and Percival M D (2007) 3 Biol Chem, 282, 20836-20846. U937 cells were propagated in culture media (RPMI 1640, supplemented with 10% FBS, 10 mM Hepes, 1 mM sodium pyrovate, 100 units/ml of each of penicillin and streptomycin). Cells were seeded in 12-well plates at 0.4×10^6 cells/ml in volumes of 1.5 ml per well in the presence of no or increasing concentrations of DPPI inhibitor. 12 points in duplicate in the range of 0.1 nM to 50 μM inhibitor were tested. After 24 hours cells were harvested, washed with PBS and lysed in 20 mM Tris-HCl, pH 7.5, 100 mM NaCl, 0.2% Triton X-100. […]
The activity of neutrophil elastase was determined by measuring the enzymatic release of chromogenic p-nitroaniline from the substrate MetOSuc-Ala-Ala-Pro-Val-pNA, which leads to an increase in absorbance at 405 nm. Assays were carried out in 96-well plates in a final volume of 200 μL at 37° C., and absorbance was measured 8 times during 21-35 minutes using a plate reader. IC50 was determined using a 4-parameter logistic equation in a non-linear curve fitting routine.

T4 sequence (P53634 231-394 limits assumed): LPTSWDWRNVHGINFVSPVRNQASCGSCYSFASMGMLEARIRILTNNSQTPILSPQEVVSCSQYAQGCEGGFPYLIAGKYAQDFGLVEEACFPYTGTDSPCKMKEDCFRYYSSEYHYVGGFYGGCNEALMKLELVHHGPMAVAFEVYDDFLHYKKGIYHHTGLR
T4 sequence (P53634 25-134 limits assumed): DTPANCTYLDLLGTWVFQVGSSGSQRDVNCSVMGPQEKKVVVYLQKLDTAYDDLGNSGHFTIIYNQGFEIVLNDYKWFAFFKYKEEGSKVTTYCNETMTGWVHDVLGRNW
T4 sequence (P53634 395-463 limits assumed): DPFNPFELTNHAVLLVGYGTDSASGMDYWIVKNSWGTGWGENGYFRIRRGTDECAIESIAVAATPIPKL
T1 sequence (P08684 whole entry): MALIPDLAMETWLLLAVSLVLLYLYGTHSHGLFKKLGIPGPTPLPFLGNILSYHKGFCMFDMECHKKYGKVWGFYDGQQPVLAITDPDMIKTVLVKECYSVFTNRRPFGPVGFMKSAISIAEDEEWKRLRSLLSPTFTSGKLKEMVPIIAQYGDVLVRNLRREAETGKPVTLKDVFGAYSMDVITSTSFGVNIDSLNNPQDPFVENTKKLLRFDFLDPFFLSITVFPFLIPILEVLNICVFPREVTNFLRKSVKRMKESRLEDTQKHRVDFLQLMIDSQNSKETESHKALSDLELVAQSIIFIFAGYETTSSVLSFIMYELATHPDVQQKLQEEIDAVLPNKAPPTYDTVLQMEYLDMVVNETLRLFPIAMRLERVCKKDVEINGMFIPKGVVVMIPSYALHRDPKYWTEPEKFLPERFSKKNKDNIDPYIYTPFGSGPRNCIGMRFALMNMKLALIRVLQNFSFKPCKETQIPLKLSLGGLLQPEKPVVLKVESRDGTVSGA
T2 sequence (P11712 whole entry): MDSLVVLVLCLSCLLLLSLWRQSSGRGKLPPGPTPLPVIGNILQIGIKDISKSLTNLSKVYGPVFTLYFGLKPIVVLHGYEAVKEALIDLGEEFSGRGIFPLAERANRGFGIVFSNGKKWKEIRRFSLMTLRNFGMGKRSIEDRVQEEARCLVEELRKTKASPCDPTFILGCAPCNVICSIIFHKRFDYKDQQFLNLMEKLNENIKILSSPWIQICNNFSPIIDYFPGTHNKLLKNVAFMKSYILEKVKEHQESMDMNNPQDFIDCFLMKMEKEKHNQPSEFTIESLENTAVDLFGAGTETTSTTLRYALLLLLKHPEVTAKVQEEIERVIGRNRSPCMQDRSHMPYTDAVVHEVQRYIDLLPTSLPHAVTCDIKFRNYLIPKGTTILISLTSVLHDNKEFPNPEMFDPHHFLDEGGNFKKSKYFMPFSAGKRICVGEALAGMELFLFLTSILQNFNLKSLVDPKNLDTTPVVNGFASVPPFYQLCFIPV
T3 sequence (P10635 whole entry): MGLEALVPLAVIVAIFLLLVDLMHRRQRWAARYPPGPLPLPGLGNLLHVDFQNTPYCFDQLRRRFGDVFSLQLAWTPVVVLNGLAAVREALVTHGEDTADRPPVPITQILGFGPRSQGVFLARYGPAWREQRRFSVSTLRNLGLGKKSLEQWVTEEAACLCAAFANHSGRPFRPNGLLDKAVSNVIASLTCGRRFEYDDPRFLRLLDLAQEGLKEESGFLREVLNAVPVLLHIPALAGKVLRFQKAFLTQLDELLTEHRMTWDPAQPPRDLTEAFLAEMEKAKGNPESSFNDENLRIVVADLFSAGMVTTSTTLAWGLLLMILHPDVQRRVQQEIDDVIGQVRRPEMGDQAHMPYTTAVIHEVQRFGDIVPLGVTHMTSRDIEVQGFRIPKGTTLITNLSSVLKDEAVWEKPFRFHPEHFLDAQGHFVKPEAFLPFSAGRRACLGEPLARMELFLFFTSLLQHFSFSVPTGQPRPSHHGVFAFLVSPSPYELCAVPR

IC50 (CYP3A4)	IC50 (CYP2C9)	IC50 (CYP2D6)	Metabolic stability mouse microsomes t½ [2]	half-life at 5 μM [2]	Metabolic stability human microsomes t½ [3]	half-life at 5 μM [3]	IC50 (DPPI [4])	half-life in mouse liver microsomes, times higher than PZ1024 ([2]; PZ1025 versus PZ1024)	half-life in mouse liver microsomes, times higher than PZ1032 ([2]; PZ1025 versus PZ1032)	IC50 (DPPI [5])	half-life in human liver microsomes, times higher than PZ1024 ([3]; PZ1025 versus PZ1024)	half-life in human liver microsomes, times higher than PZ1032 ([3]; PZ1025 versus PZ1032)	SMILES	highest concentration that does not cross the significance threshold [1]	times less toxic than PZ1024 ([1]; PZ1025 versus PZ1024, TK6 cytotoxicity)
> 100000 nM	> 100000 nM	18000 nM	t½ ≈ 10 min	~10 min	t½ ≈ 55 min	~55 min	37 nM						CN1CCN(Cc2ccc(-c3ccc(C[C@@H](C#N)NC(=O)C4(N)CCCCC4)cc3)cc2)CC1 [PZ1024, reference compound]	15 µM	
> 100000 nM	> 100000 nM	> 100000 nM	t½ ≈ 65 min	~65 min	t½ > 300 min	> 300 min	34 nM	more than 6 times	about 2 times	11 nM and ~11 nM	more than 5 times	more than 5 times	CN1CCN(Cc2ccc(-c3ccc(C[C@@H](C#N)NC(=O)C4(N)CCOCC4)cc3)cc2)CC1 [PZ1025, (S)-4-amino-N-(1-cyano-2-(4′-((4-methylpiperazin-1-yl)methyl)biphenyl-4-yl)ethyl)tetrahydro-2H-pyran-4-carboxamide]	150 µM	at least 5 times
			t½ ≈ 35 min	35 min	t½ ≈ 50 min	50 min				~11 nM			CN1CCN(S(=O)(=O)c2ccc(-c3ccc(C[C@@H](C#N)NC(=O)C4(N)CCOCC4)cc3)cc2)CC1 [PZ1032, reference compound]		
